Like-named read-outs stand apart in the source and are kept apart here.
Assays:
[1] = target: T1, parathyroid cell Ca^2+ receptor (Bos taurus, UniProt P35384); format: cell-based, bovine
T1 sequence (P35384 20-1085): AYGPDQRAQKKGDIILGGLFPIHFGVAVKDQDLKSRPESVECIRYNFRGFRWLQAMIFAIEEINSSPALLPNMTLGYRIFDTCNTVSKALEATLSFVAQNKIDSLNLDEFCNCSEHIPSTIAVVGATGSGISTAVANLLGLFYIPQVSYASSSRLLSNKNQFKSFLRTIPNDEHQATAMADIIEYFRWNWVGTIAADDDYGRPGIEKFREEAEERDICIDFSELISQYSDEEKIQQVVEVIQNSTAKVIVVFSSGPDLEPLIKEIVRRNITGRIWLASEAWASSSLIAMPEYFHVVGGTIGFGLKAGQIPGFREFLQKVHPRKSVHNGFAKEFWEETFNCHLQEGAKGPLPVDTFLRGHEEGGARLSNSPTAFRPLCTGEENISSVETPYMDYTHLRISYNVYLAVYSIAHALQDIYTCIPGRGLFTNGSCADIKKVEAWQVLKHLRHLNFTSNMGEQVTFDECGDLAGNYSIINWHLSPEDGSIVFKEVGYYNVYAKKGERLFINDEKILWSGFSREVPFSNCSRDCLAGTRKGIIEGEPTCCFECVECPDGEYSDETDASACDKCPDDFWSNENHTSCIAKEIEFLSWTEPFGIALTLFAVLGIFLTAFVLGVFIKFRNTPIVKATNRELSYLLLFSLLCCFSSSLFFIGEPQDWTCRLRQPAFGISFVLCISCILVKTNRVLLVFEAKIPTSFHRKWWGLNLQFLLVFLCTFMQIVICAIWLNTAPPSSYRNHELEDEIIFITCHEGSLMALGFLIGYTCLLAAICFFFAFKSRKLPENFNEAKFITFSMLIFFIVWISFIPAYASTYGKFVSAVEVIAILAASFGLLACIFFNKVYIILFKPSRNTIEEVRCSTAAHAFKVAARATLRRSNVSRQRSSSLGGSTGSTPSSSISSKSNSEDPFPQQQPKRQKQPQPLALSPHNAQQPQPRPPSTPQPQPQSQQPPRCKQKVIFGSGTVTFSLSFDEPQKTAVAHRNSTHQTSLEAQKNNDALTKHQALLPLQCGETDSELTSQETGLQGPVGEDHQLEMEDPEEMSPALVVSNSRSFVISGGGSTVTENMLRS

[2] = target: T2, Ca^2+ receptor (Homo sapiens, UniProt P41180); experiment: Cl- current in Xenopus oocytes injected with human parathyroid poly(A)+ mRNA; format: cell-based; conditions: hexacyclen 135 µM, neomycin 100 µM, NPS 382 5 mM
T2 construct: Oocytes were injected with poly(A)^+-enriched mRNA from human parathyroid tissue (hyperplastic glands from a case of secondary HPT); expressed in transfected cells; host or cells: Xenopus laevis oocytes injected with poly(A)+ mRNA from hyperplastic human parathyroid glands
T2 sequence (P41180 20-1078): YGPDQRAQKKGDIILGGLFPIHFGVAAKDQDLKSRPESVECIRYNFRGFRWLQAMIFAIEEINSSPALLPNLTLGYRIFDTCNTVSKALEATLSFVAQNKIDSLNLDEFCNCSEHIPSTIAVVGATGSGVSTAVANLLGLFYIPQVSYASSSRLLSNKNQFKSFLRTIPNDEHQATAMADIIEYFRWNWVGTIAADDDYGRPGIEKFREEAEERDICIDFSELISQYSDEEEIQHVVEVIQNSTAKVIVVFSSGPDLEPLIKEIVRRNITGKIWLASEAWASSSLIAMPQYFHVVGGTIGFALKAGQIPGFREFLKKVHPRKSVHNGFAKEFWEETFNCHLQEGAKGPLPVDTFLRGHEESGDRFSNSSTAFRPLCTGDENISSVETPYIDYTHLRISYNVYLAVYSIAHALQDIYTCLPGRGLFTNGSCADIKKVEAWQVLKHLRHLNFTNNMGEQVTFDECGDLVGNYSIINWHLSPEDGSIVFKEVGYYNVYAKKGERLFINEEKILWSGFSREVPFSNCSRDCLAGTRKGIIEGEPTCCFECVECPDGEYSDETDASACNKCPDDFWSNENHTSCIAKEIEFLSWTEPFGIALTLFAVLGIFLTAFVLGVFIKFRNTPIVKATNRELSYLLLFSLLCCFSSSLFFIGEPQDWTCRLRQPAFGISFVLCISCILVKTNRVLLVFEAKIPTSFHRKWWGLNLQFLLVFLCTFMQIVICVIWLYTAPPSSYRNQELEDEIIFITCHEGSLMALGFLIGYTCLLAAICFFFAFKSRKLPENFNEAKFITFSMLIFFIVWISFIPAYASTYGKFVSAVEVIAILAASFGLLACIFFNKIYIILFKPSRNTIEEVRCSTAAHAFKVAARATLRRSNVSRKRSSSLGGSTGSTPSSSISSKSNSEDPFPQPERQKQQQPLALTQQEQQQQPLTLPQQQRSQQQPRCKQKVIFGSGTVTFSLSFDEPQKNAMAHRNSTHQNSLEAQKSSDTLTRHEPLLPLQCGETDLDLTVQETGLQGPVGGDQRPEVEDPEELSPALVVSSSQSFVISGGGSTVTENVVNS

[3] = Net positive charge of the molecule; format: physicochemical; conditions: Table 1; effective charge at physiological pH
[4] = target: T3, parathyroid cell Ca^2+ receptor (Homo sapiens, UniProt P41180); experiment: [Ca2+]i (fura-2) in human parathyroid cells; format: cell-based; conditions: human parathyroid cells (adenoma)
T3 construct: Dissociated parathyroid cells were prepared from a parathyroid adenoma obtained by surgery from a patient with primary hyperparathyroidism; endogenous in cells; host or cells: primary human parathyroid cells from adenomatous or hyperplastic glands
T3 sequence (P41180 20-1078): T2 sequence (P41180 20-1078)
Method: Human parathyroid glands, obtained from patients undergoing surgical removal of parathyroid tissue for primary or uremic hyperparathyroidism (HPT), were treated similarly to bovine tissue. Glands were trimmed of excess fat and connective tissue and then minced with a fine scissors into approximate cubes of 2-3 mm. Dissociated parathyroid cells were prepared by collagenase digestion. Dissociated cells were then purified by centrifugation in Percoll buffer. The resultant parathyroid cell preparation was essentially devoid of red blood cells, adipocytes, and capillary tissue as assessed by phase contrast microscopy and Sudan black B staining. Dissociated and purified parathyroid cells were present as small clusters containing 5 to 20 cells.
The cells were then pelleted, resuspended in the same buffer lacking the ester, and incubated a further 15 min at 37°C. The cells were subsequently washed twice with PCB containing 0.5 mM CaCl2 and 0.5% BSA and maintained at room temperature (about 20°C). Immediately before use, the cells were diluted five-fold with prewarmed 0.5 mM CaCl2-PCB to obtain a final BSA concentration of 0.1%. The concentration of cells in the cuvette used for fluorescence recording was 1-2 x 10^6/ml.
The fluorescence of indicator-loaded cells was measured at 37°C in a spectrofluorimeter (Biomedical Instrumentation Group, University of Pennsylvania, Philadelphia, PA) equipped with a thermostated cuvette holder-and magnetic stirrer using excitation and emission wavelengths of 340 and 510 nm, respectively. […] Leakage of dye is dependent on temperature and most occurs within the first 2 min after warming the cells in the cuvette; dye leakage increases only very slowly thereafter. To correct the calibration for dye leakage, cells were placed in the cuvette and stirred at 37°C for 2-3 min. The cell suspension was then removed, the cells pelleted, and the supernatant returned to a clean cuvette. […] This estimate was subtracted from the apparent Fmin.

[5] = target: T4, C-cell Ca^2+ receptor (Rattus norvegicus, UniProt P48442); format: cell-based; conditions: Table 6; rMTC 6-23 cells, fura-2; inactive = no increase in cytosolic Ca2+ at 1-5 mM
T4 sequence (P48442 20-1079): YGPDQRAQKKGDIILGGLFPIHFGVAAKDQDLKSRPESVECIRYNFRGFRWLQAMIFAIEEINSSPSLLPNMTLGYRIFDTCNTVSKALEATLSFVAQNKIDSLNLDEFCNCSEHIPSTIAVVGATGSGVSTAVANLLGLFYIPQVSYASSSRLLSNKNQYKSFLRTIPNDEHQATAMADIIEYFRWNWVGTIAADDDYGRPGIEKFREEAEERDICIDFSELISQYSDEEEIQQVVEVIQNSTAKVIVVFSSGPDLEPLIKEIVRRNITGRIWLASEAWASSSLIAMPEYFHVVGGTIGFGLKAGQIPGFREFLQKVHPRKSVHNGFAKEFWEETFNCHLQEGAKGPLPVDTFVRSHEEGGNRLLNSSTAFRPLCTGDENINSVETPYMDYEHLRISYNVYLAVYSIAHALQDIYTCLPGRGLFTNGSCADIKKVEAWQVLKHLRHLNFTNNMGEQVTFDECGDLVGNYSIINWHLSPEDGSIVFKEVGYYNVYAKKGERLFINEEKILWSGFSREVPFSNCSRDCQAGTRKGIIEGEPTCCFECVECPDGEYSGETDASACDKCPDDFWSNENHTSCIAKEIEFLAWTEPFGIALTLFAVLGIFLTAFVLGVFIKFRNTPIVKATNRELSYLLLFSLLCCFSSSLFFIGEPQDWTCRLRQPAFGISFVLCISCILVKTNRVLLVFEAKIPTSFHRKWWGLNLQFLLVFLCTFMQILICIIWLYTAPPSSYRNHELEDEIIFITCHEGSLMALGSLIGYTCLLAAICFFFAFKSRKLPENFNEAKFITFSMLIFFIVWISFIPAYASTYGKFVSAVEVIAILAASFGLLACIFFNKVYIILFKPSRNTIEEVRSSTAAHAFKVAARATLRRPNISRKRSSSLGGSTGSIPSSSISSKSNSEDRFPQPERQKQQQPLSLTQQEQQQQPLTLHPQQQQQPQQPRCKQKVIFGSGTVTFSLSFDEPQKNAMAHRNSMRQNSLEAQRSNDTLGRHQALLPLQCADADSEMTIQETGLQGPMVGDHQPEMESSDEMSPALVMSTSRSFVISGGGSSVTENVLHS

[6] = Serum or whole blood ionized Ca2+ and PTH in rats in vivo; set-up: species or system Sprague-Dawley rats
Text: Male Sprague-Dawley rates (200 g) were maintained on a low calcium diet for one week prior to receiving test substance or vehicle as control. Blood was collected from the tail vein three hours after the intra-peritoneal administration of NPS 467. […]

[7] = Serum ionized Ca2+ in the 5/6 nephrectomized rat (secondary hyperparathyroidism model); format: in vivo, Sprague-Dawley rats; conditions: 10 mg/kg i.p.
Text: An accepted and widely used animal model of secondary hyperparathyroidism arising from chronic renal failure is the 5/6 nephrectomized rat. […] Male Sprague-Dawley rats (250 g) received a 5/6 nephrectomy and were allowed to recover for 2 weeks. At this time they were normocalcemic (due to elevated levels of serum PTH).

[8] = Serum ionized Ca2+ in parathyroidectomized rats; format: in vivo; conditions: single dose 10 mg/kg i.p., over a period of 6 hours
Text: To determine the primary target tissue upon which NPS 467 acts to cause a hypocalcemic response, the para thyroid glands in rats were surgically removed.

[9] = normal calcium-replete diet, 10 mg/kg i.p.

Compound: C1CNCCNCCNCCNCCNCCN1 [hexacyclen, 1,4,7,10,13,16-hexaaza-cyclooctadecane]
- fold increase in potency over pentaethylenehexamine (straight chain analog) [1]: 25 fold
- EC50 ([1]; Table 1, mobilization of intracellular Ca2+ in parathyroid cells, read-out: EC50): 20 µM
- EC50 ([1]; […]): 20 µM
- mobilization of intracellular Ca2+ in oocytes expressing the Ca2+ receptor [2]: caused the mobilization of intracellular Ca^2+
- Net (+) Charge [3]: +6

Compound: N^1,N^1,N^5,N^14,N^14-tetrakis-(3-aminopropyl)spermine [NPS 382]
- mobilization of intracellular Ca2+ in oocytes expressing the Ca2+ receptor [2]: effective
- Net (+) Charge [3]: +8

Compound: COc1cccc([C@@H](C)NCCCc2ccccc2Cl)c1 [NPS R-568]
- EC50 ([1]; Table 6, […], fura-2, inactive = no increase in cytosolic Ca2+ at 1-5 mM, read-out: EC50(µM) PARATHYROID): 0.6 µM
- EC50 [4]: 3 µM

Compound: NCCCNCCCCNCCCNCCCN(O)CCCNC(=O)Cc1c[nH]c2cccc(O)c12 [NPS 015]
- EC50(µM) C-CELL [5]: inactive

Compound: COc1cccc([C@@H](C)NCCCc2ccccc2)c1 [NPS R-467]
- [Ca2+]i response in Ca2+-free buffer ([1]; 30 àM NPS R-467 alone, Ca2+-free buffer): no increase in [Ca^2+]i
- [Ca2+]i response in Ca2+-free buffer after neomycin ([1]; NPS R-467 30 µM added after 10 µM neomycin): elicited a transient increase in [Ca^2+]i
- [Ca2+]i response in Ca2+-free buffer after neomycin ([1]; NPS R-467 30 µM added after 100 µM neomycin): did not cause an increase in [Ca^2+]i
- potency in lowering serum Ca2+ in vivo, enantiomers compared ([6]; each compound at 5 mg/kg body weight, Fig. 42): more potent than the S-isomer in lowering serum Ca^2+ in vivo
- time serum ionized Ca2+ remained depressed [6, 9]: up to 6 hours
- time to maximal fall in serum ionized Ca2+ [6, 9]: ≤ 1 h
- decrease in serum ionized Ca2+ from the control level ([6]; normal calcium-replete diet, single dose 10 mg/kg i.p., at 1 hr): 22%
- time of the fall in serum ionized Ca2+ [7]: ≤ 2 h
- serum ionized Ca2+ levels ([7]; 5/6 nephrectomy, 2 weeks recovery): 83 % of controls
- change in serum ionized Ca2+ levels [8]: did not cause any change in serum ionized Ca^2+ levels

Source: patent EP0637237B1, “CALCIUM RECEPTOR-ACTIVE MOLECULES” (BRIGHAM AND WOMEN'S HOSPITAL, INC., priority 1993, dated 1994)
